{
  "source": "patent US12325708B2",
  "about": "“Adenosine 2 receptor antagonists” (Nektar Therapeutics, priority 2019, dated 2025)",
  "key": {"[1]": {"biological_target": "T1, A2A receptor (Homo sapiens, UniProt P29274)", "T1 construct": "purchased", "T1 sequence (P29274 whole entry)": "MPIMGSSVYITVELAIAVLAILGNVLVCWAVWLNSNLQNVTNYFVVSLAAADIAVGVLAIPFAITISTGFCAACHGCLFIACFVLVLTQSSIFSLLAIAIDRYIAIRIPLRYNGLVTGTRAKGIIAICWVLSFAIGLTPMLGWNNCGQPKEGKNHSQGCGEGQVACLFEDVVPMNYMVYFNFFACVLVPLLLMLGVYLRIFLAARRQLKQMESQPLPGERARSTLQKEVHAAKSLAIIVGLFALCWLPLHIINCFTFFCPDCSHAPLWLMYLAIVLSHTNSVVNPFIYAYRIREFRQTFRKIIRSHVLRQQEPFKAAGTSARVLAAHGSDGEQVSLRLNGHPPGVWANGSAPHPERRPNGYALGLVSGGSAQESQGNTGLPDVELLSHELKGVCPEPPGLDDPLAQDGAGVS", "experiment": "Radioligand receptor binding assay, A2A receptor", "conditions": "cell membranes overexpressing A2A receptor, read-out: Potency Ki A2A", "in_short": "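Membranes from cell lines overexpressing human A2A, A1 or A3 receptors were incubated 60 min at room temperature with the receptor-appropriate [3H] tracer. After filtration and washing in 50 mM Tris HCl pH 7.5, bound label was counted by scintillation. IC50 came from nonlinear regression and Ki from the Cheng-Prusoff equation.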"}, "[2]": {"experiment": "Brain-to-plasma ratio (B/P) after administration", "type": "in vivo, Sprague-Dawley rats", "conditions": "Table 2, brain-to-plasma ratio at 1 h", "in_short": "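Plasma pharmacokinetic parameters determined after oral (PO) administration; brain-to-plasma concentration ratio (B/P) used as the brain penetration measure.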"}, "[3]": {"experiment": "Plasma pharmacokinetic parameters following intravenous (IV) or oral (PO) administration in rats", "type": "in vivo, Sprague-Dawley rats", "conditions": "rat; for Vd: read-out: Vss obs; for AUC / bioavailability: oral; for Total clearance as % liver blood flow: IV; for Plasma concentrations post 8 hr: IV 0.5 mg/kg and PO 2.5 mg/kg; for F: PO 2.5 mg/kg vs IV 0.5 mg/kg", "in_short": "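Fasted male Sprague-Dawley rats (230-250 g, n=2/group), dosed 0.5 mg/kg IV (jugular) or 2.5 mg/kg PO gavage in water. Plasma sampled 2–1440 min, analyzed by LC-MS/MS; non-compartmental analysis with nominal doses/times gave AUC, Cmax, Tmax, CL, Vss, MRTlast, F.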"}, "[4]": {"conditions": "male, Sprague-Dawley, plasma, intravenous, 0.5 mg/kg, Table 2 summary of Example 27, values marked 1 are the average of experiments"}, "[5]": {"conditions": "male, Sprague-Dawley, plasma, iv, 0.5 mg/kg, IV 0.5 mg/kg, injectable water"}, "[6]": {"conditions": "male, Sprague-Dawley, plasma, 2.5 mg/kg, Table 2 summary of Example 27, values marked 1 are the average of experiments"}, "[7]": {"conditions": "male, Sprague-Dawley, plasma, po, 2.5 mg/kg, PO 2.5 mg/kg via gavage, injectable water"}, "[8]": {"conditions": "male, Sprague-Dawley, plasma, po, 2.5 mg/kg, PO 2.5 mg/kg via gavage, injectable water, read-out: Cmax"}, "[9]": {"conditions": "male, Sprague-Dawley, plasma, po, 2.5 mg/kg, PO 2.5 mg/kg via gavage, injectable water, read-out: Tmax"}, "[10]": {"conditions": "IV 0.5 mg/kg, injectable water, listed as Compound 1 (#1), 0.5 mg/kg"}, "[11]": {"conditions": "IV 0.5 mg/kg, injectable water, listed as Compound 1 (#2), 0.5 mg/kg"}, "[12]": {"conditions": "PO 2.5 mg/kg via gavage, injectable water, listed as Compound 1 (#1), 2.5 mg/kg"}, "[13]": {"conditions": "PO 2.5 mg/kg via gavage, injectable water, listed as Compound 1 (#2), 2.5 mg/kg"}, "[14]": {"conditions": "IV 0.5 mg/kg, injectable water, listed as Compound 4 (#2), 0.5 mg/kg"}, "[15]": {"conditions": "PO 2.5 mg/kg via gavage, injectable water, listed as Compound 4 (#2), 2.5 mg/kg"}},
  "note": "Like-named read-outs stand apart in the source and are kept apart here.",
  "data": [
    {"compound": "COCCOc1ccc(N2CCN(CCN(C)c3cc4nc(-c5ncco5)nn4c(N)n3)CC2)cc1", "note": "[Compound 1, N^7-(2-{4-[4-(2-methoxyethoxy)phenyl]piperazin-1-yl}ethyl)-N^7-methyl-2-(1,3-oxazol-2-yl)[1,2,4]triazolo[1,5-c]pyrimidine-5,7-diamine]", "values": [
      {"measurement": "Ki", "setting": "[1]", "value": 6, "unit": "nM"},
      {"measurement": "B/P (1 h)", "setting": "[2]", "value": "0.06^1"},
      {"measurement": "clearance", "setting": "[3]; [4]", "value": 31, "unit": "mL/min/kg"},
      {"measurement": "AUC(0-inf)", "setting": "[3]; [5]", "value": 340, "unit": "ng·h/mL"},
      {"measurement": "AUC(0-t)", "setting": "[3]; [5]", "value": 335, "unit": "ng·h/mL"},
      {"measurement": "MRT last", "setting": "[3]; [5]", "value": "84.6 to 87", "unit": "min"},
      {"measurement": "clearance", "setting": "[3]; [5]", "value": "24.6 to 36.1", "unit": "mL/min/kg"},
      {"measurement": "Cmax", "setting": "[3]; male, Sprague-Dawley, plasma, iv, 0.5 mg/kg, IV 0.5 mg/kg, injectable water, read-out: Cmax", "value": 311, "unit": "ng/mL"},
      {"measurement": "Tmax", "setting": "[3]; male, Sprague-Dawley, plasma, iv, 0.5 mg/kg, IV 0.5 mg/kg, injectable water, read-out: Tmax", "value": 2, "unit": "min"},
      {"measurement": "Vd", "setting": "[3]; [5]", "value": "2.17 to 3.44", "unit": "L/kg"},
      {"measurement": "AUC", "setting": "[3]; [6]", "value": 969, "unit": "ng·h/mL"},
      {"measurement": "bioavailability", "setting": "[3]; [6]", "value": 71, "unit": "%"},
      {"measurement": "AUC(0-inf)", "setting": "[3]; [7]", "value": 1280, "unit": "ng·h/mL"},
      {"measurement": "AUC(0-t)", "setting": "[3]; [7]", "value": 1220, "unit": "ng·h/mL"},
      {"measurement": "Cmax", "setting": "[3]; [8]", "value": "242 to 367", "unit": "ng/mL"},
      {"measurement": "Tmax", "setting": "[3]; [9]", "value": "45 to 60", "unit": "min"},
      {"measurement": "Total clearance as % liver blood flow", "setting": "[3]", "value": "40-60 % liver blood flow"},
      {"measurement": "Plasma concentrations post 8 hr", "setting": "[3]", "value": "below the limit of quantitation"},
      {"measurement": "AUCinf", "setting": "[3]; [10]", "value": 233, "unit": "ng·h/mL"},
      {"measurement": "AUClast", "setting": "[3]; [10]", "value": 228, "unit": "ng·h/mL"},
      {"measurement": "CL", "setting": "[3]; [10]", "value": 36.1, "unit": "mL/min/kg"},
      {"measurement": "Cmax", "setting": "[3]; [10]", "value": 207, "unit": "ng/mL"},
      {"measurement": "MRTlast", "setting": "[3]; [10]", "value": 84.6, "unit": "min"},
      {"measurement": "Vss obs", "setting": "[3]; [10]", "value": 3.44, "unit": "L/kg"},
      {"measurement": "CL", "setting": "[3]; [11]", "value": 24.6, "unit": "mL/min/kg"},
      {"measurement": "MRTlast", "setting": "[3]; [11]", "value": 87, "unit": "min"},
      {"measurement": "Vss obs", "setting": "[3]; [11]", "value": 2.17, "unit": "L/kg"},
      {"measurement": "AUCinf", "setting": "[3]; [12]", "value": 777, "unit": "ng·h/mL"},
      {"measurement": "AUClast", "setting": "[3]; [12]", "value": 718, "unit": "ng·h/mL"},
      {"measurement": "Cmax", "setting": "[3]; [12]", "value": 242, "unit": "ng/mL"},
      {"measurement": "Tmax", "setting": "[3]; [12]", "value": 45, "unit": "min"},
      {"measurement": "Cmax", "setting": "[3]; [13]", "value": 367, "unit": "ng/mL"},
      {"measurement": "Tmax", "setting": "[3]; [13]", "value": 60, "unit": "min"},
      {"measurement": "F", "setting": "[3]; listed as Compound 1 (#1)", "value": 66.8, "unit": "%"},
      {"measurement": "F", "setting": "[3]; listed as Compound 1 (#2)", "value": 75.5, "unit": "%"}
    ]},
    {"compound": "COCCOc1cnc(N2CCN(CCN(C)c3cc4nc(-c5ncco5)nn4c(N)n3)CC2)c(F)c1", "note": "[Compound 4, N^7-(2-{4-[3-fluoro-5-(2-methoxyethoxy)pyridin-2-yl]piperazin-1-yl}ethyl)-N^7-methyl-2-(1,3-oxazol-2-yl)[1,2,4]triazolo[1,5-c]pyrimidine-5,7-diamine]", "values": [
      {"measurement": "Ki", "setting": "[1]", "value": 2, "unit": "nM"},
      {"measurement": "Kp at 1 h", "setting": "[2]; Sprague-Dawley, rat", "value": 0.04},
      {"measurement": "clearance", "setting": "[3]; [4]", "value": 34, "unit": "mL/min/kg"},
      {"measurement": "AUC(0-inf)", "setting": "[3]; [5]", "value": 251, "unit": "ng·h/mL"},
      {"measurement": "AUC(0-t)", "setting": "[3]; [5]", "value": 249, "unit": "ng·h/mL"},
      {"measurement": "MRT last", "setting": "[3]; [5]", "value": 53.4, "unit": "min"},
      {"measurement": "clearance", "setting": "[3]; [5]", "value": "26.8 to 33.6", "unit": "mL/min/kg"},
      {"measurement": "Vd", "setting": "[3]; [5]", "value": 1.93, "unit": "L/kg"},
      {"measurement": "AUC", "setting": "[3]; [6]", "value": 898, "unit": "ng·h/mL"},
      {"measurement": "bioavailability", "setting": "[3]; [6]", "value": 78, "unit": "%"},
      {"measurement": "AUC(0-inf)", "setting": "[3]; [7]", "value": 978, "unit": "ng·h/mL"},
      {"measurement": "AUC(0-t)", "setting": "[3]; [7]", "value": 898, "unit": "ng·h/mL"},
      {"measurement": "MRT last", "setting": "[3]; [7]", "value": 153, "unit": "min"},
      {"measurement": "Cmax", "setting": "[3]; [8]", "value": 231, "unit": "ng/mL"},
      {"measurement": "Tmax", "setting": "[3]; [9]", "value": "30 to 45", "unit": "min"},
      {"measurement": "Total clearance as % liver blood flow", "setting": "[3]", "value": "45-56 % liver blood flow"},
      {"measurement": "Plasma concentrations post 8 hr", "setting": "[3]", "value": "below the limit of quantitation"},
      {"measurement": "CL", "setting": "[3]; IV 0.5 mg/kg, injectable water, listed as Compound 4 (#1), 0.5 mg/kg", "value": 33.6, "unit": "mL/min/kg"},
      {"measurement": "AUCinf", "setting": "[3]; [14]", "value": 312, "unit": "ng·h/mL"},
      {"measurement": "AUClast", "setting": "[3]; [14]", "value": 310, "unit": "ng·h/mL"},
      {"measurement": "CL", "setting": "[3]; [14]", "value": 26.8, "unit": "mL/min/kg"},
      {"measurement": "MRTlast", "setting": "[3]; [14]", "value": 54.8, "unit": "min"},
      {"measurement": "Tmax", "setting": "[3]; PO 2.5 mg/kg via gavage, injectable water, listed as Compound 4 (#1), 2.5 mg/kg", "value": 45, "unit": "min"},
      {"measurement": "AUCinf", "setting": "[3]; [15]", "value": 707, "unit": "ng·h/mL"},
      {"measurement": "AUClast", "setting": "[3]; [15]", "value": 662, "unit": "ng·h/mL"},
      {"measurement": "Cmax", "setting": "[3]; [15]", "value": 172, "unit": "ng/mL"},
      {"measurement": "Tmax", "setting": "[3]; [15]", "value": 30, "unit": "min"},
      {"measurement": "F", "setting": "[3]; listed as Compound 4 (#1)", "value": 77.8, "unit": "%"},
      {"measurement": "F", "setting": "[3]; listed as Compound 4 (#2)", "value": 45.4, "unit": "%"}
    ]}
  ]
}
